The source of these data is ChEMBL document CHEMBL1201862, “PubChem BioAssay data set” (2004).

Among the test systems are ACHN; CCRF-CEM; HCT-116; HL-60; HOP-92; K562; LOX IMVI; MDA-MB-231; MOLT-4; NCI-H226; NCI-H23; OVCAR-3; OVCAR-8; RXF 393; SNB-75; SR; T47D; UO-31; COLO 205; SK-OV-3.
What all share (test): NCI tumour cell line growth inhibition, 48 h

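Results reflect a 48-hour exposure of cells in 96-well plates to compound at five concentrations. The concentration for 50% growth inhibition is given as GI50.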 Active and inactive are the calls of the source. Cut-off read from the data, not from the text of the source: active = GI50 up to about 1.1 µM and inactive = higher. Where only a bound is given, the exact number is not on record here.

Turning to `COC(=O)c1cc(C)ccc1/C=C1\Cc2cccc(C)c2C1=O`, the GI50 is 38.7 µM (inactive) in the assay on ACHN; 12.3 µM (inactive) with CCRF-CEM; 18.1 µM (inactive) with HCT-116; 19.7 µM (inactive) in the assay on HL-60; 20.4 µM (inactive) in the assay with HOP-92; 9.02 µM (inactive) in the assay on K562. Also, the GI50 with LOX IMVI is 8.77 µM (inactive); in the assay with MDA-MB-231, 26.7 µM (inactive); with MOLT-4 it was 9.35 µM (inactive); in the assay with NCI-H226, 58.3 µM (inactive); in the assay on NCI-H23, > 100 µM (inactive); in the assay on OVCAR-3, 19.5 µM (inactive). Also, the GI50 in the assay on OVCAR-8 is 14.1 µM (inactive); with RXF 393, 61.9 µM (inactive); with SNB-75, 35.1 µM (inactive); with SR, 24.7 µM (inactive); with T47D, 6.68 µM (inactive); in the assay on UO-31 it was 44.7 µM (inactive).

In the case of `Cc1cc2ccc(N)nc2nc1O`, the GI50 in the assay on ACHN is 52 µM (inactive); in the assay with COLO 205, > 100 µM (inactive); in the assay on HCT-116 it was > 100 µM (inactive); in the assay on HL-60, > 100 µM (inactive); in the assay on HOP-92, > 100 µM (inactive); with MDA-MB-231 it was > 100 µM (inactive). The GI50 in the assay with NCI-H226 was 51.6 µM (inactive); with NCI-H23, > 100 µM (inactive); in the assay on OVCAR-8 it was > 100 µM (inactive); with RXF 393, > 100 µM (inactive); with SK-OV-3, > 100 µM (inactive); in the assay with SNB-75, > 100 µM (inactive). Also, the GI50 in the assay with SR, with T47D and with UO-31 was > 100 µM (inactive) throughout.

Take `O=CN(CCN1CCCC1)C1CCc2cc(Cl)c(Cl)cc2C1` (stereo not given): the GI50 in the assay on CCRF-CEM is 22.5 µM (inactive); with COLO 205, 20.4 µM (inactive); in the assay with HCT-116 it was 10.6 µM (inactive); in the assay with HL-60 it was 19.2 µM (inactive); with HOP-92 it was 33.2 µM (inactive); in the assay on K562 it was 20.9 µM (inactive). Further, the GI50 in the assay on LOX IMVI was 14 µM (inactive); in the assay with MDA-MB-231, 11 µM (inactive); in the assay with MOLT-4 it was 24.4 µM (inactive); in the assay on NCI-H23 it was 17.4 µM (inactive); in the assay with OVCAR-3, 12.3 µM (inactive); in the assay with OVCAR-8, 20.6 µM (inactive). For the same compound, the GI50 is 10.9 µM (inactive) in the assay with RXF 393; 0.714 µM (active) in the assay with SK-OV-3; 23.9 µM (inactive) in the assay with SR; 11.1 µM (inactive) in the assay on T47D; 14.1 µM (inactive) in the assay on UO-31.

For `O=[N+]([O-])c1ccc2c(c1)N=C1OC(c3c[nH]c4ccc(COc5ccccc5)cc34)C(O)=C1N2` (stereo not given), the GI50 was > 100 µM (inactive) in the assay on ACHN; 23.2 µM (inactive) in the assay with COLO 205; 72.8 µM (inactive) in the assay on HCT-116; 1.74 µM (inactive) in the assay with HL-60; > 100 µM (inactive) with HOP-92; 3.73 µM (inactive) in the assay with K562. The GI50 in the assay with LOX IMVI was > 100 µM (inactive); in the assay on MDA-MB-231, 56.6 µM (inactive); with MOLT-4 it was 1.82 µM (inactive); with NCI-H226 it was > 100 µM (inactive); in the assay on NCI-H23 it was > 100 µM (inactive); in the assay on OVCAR-3, > 100 µM (inactive). Also, the GI50 is > 100 µM (inactive) with OVCAR-8; > 100 µM (inactive) in the assay with RXF 393; 98.9 µM (inactive) in the assay with SK-OV-3; 25.1 µM (inactive) in the assay with SNB-75; 7.71 µM (inactive) in the assay with SR; > 100 µM (inactive) with T47D. Further, in the assay on UO-31, the GI50 is > 100 µM (inactive).

Consider `CCOC(=O)c1c(N2CCOCC2)[nH]c(=O)c(C(c2ccc(OC)cc2)c2c(O)c(C(=O)OCC)c(N3CCOCC3)[nH]c2=O)c1O`, for which the GI50 in the assay with ACHN, in the assay on CCRF-CEM, in the assay with COLO 205, in the assay with HCT-116, in the assay on HOP-92 and in the assay with K562 was > 100 µM (inactive) each time. Further, the GI50 in the assay on LOX IMVI, in the assay with MDA-MB-231, in the assay with MOLT-4, in the assay on NCI-H226, in the assay on NCI-H23 and in the assay on OVCAR-3 was > 100 µM (inactive) each time. For the same compound, the GI50 in the assay on OVCAR-8, with RXF 393, in the assay with SK-OV-3, with SNB-75, in the assay with SR and in the assay on T47D was > 100 µM (inactive) in each case. Also, in the assay on UO-31, the GI50 is > 100 µM (inactive).

Turning to `COc1ccc(-c2cc(-c3ccc(Nc4ccnc5cc(C(F)(F)F)ccc45)cc3)nc(N)c2C#N)cc1`, the GI50 in the assay on ACHN was > 100 µM (inactive); in the assay with COLO 205, > 100 µM (inactive); with HCT-116, 23.2 µM (inactive); in the assay with HL-60, > 100 µM (inactive); in the assay with HOP-92, 26.1 µM (inactive); with K562 it was > 100 µM (inactive). Besides, the GI50 is 33.3 µM (inactive) in the assay with LOX IMVI; 99.8 µM (inactive) with MDA-MB-231; 95.5 µM (inactive) with MOLT-4; > 100 µM (inactive) with NCI-H226; > 100 µM (inactive) with NCI-H23; 14.6 µM (inactive) with OVCAR-3. Also, the GI50 was > 100 µM (inactive) with RXF 393; > 100 µM (inactive) in the assay with SK-OV-3; 31 µM (inactive) in the assay on SNB-75; 26.7 µM (inactive) in the assay with SR; 46.1 µM (inactive) with T47D; > 100 µM (inactive) in the assay on UO-31.

Turning to `Nc1nccc(NCC2(CO)CCC2)n1`, the GI50 in the assay on ACHN, with CCRF-CEM, in the assay on COLO 205, in the assay with HCT-116, in the assay on HL-60 and with HOP-92 was > 100 µM (inactive) in each case. In addition, the GI50 in the assay on K562, in the assay with LOX IMVI, with MDA-MB-231, with MOLT-4, with NCI-H226 and with NCI-H23 was > 100 µM (inactive) each time. Besides, the GI50 in the assay on OVCAR-3, with OVCAR-8, in the assay on RXF 393, in the assay with SNB-75, in the assay on SR and with T47D was > 100 µM (inactive) throughout. Further, the GI50 in the assay with UO-31 is > 100 µM (inactive).

Regarding `COc1cccc(C(=O)Oc2ccc(OS(=O)(=O)c3ccc(C)cc3)cc2)c1C#N`, the GI50 was 94 µM (inactive) with ACHN; 47.5 µM (inactive) in the assay with CCRF-CEM; 71.4 µM (inactive) in the assay on COLO 205; 41.7 µM (inactive) in the assay on HCT-116; 34.1 µM (inactive) in the assay with HL-60; 41.6 µM (inactive) in the assay on HOP-92. Moreover, the GI50 in the assay with K562 is 43 µM (inactive); in the assay with LOX IMVI, > 100 µM (inactive); with MDA-MB-231, 65.6 µM (inactive); with MOLT-4 it was 35.7 µM (inactive); in the assay on NCI-H226, > 100 µM (inactive); in the assay with NCI-H23, 50.4 µM (inactive). For the same compound, the GI50 in the assay on OVCAR-3 was 29.9 µM (inactive); in the assay with OVCAR-8, 66.8 µM (inactive); with RXF 393, 37.6 µM (inactive); in the assay with SNB-75, > 100 µM (inactive); in the assay with SR, 47.9 µM (inactive); in the assay with T47D, 20.1 µM (inactive). The GI50 with UO-31 is 28.3 µM (inactive).

On to `CC(C)c1nc2cc(C(F)(F)F)ccc2[nH]c1=O`, for which the GI50 with ACHN was 72.1 µM (inactive); with CCRF-CEM, 0.361 µM (active); in the assay with COLO 205, > 100 µM (inactive); in the assay on HCT-116 it was 62.2 µM (inactive); in the assay on HL-60, 54 µM (inactive); in the assay on HOP-92, 42.5 µM (inactive). Also, the GI50 was > 100 µM (inactive) in the assay on K562; 69 µM (inactive) in the assay on MDA-MB-231; 75.3 µM (inactive) with MOLT-4; 51.3 µM (inactive) with NCI-H226; > 100 µM (inactive) in the assay on NCI-H23; 49.9 µM (inactive) with OVCAR-3. The GI50 in the assay on OVCAR-8 was > 100 µM (inactive); in the assay with RXF 393, 49.1 µM (inactive); with SK-OV-3, > 100 µM (inactive); in the assay on SNB-75, 34.4 µM (inactive); in the assay with SR, 43.3 µM (inactive); in the assay on T47D it was > 100 µM (inactive). For the same compound, the GI50 in the assay on UO-31 is > 100 µM (inactive).

Consider `O=C(/C=C/c1ccc(/C=C/C(=O)c2ccc(O)cc2)cc1)c1ccc(O)cc1`, for which the GI50 in the assay with ACHN, with CCRF-CEM, in the assay on COLO 205, in the assay with HCT-116, in the assay on HL-60 and with HOP-92 was > 100 µM (inactive) each time. In addition, the GI50 was > 100 µM (inactive) in the assay on K562; 33.8 µM (inactive) with LOX IMVI; > 100 µM (inactive) in the assay on MDA-MB-231; > 100 µM (inactive) in the assay with MOLT-4; > 100 µM (inactive) in the assay with NCI-H226; > 100 µM (inactive) in the assay on NCI-H23. The GI50 in the assay with OVCAR-3, in the assay with OVCAR-8, with RXF 393, in the assay with SNB-75, with SR and in the assay on T47D was > 100 µM (inactive) throughout. In the assay with UO-31, the GI50 was > 100 µM (inactive).

Take `COc1ccc(/C=C/c2cc(O)cc(OC)c2)cc1`: the GI50 with ACHN was 19.8 µM (inactive); in the assay with COLO 205, > 100 µM (inactive); with HCT-116, > 100 µM (inactive); in the assay with HL-60, 79.6 µM (inactive); with HOP-92, 50.7 µM (inactive); in the assay with K562, 67.9 µM (inactive). In addition, the GI50 in the assay with MDA-MB-231 was 27.8 µM (inactive); in the assay with MOLT-4, 56.5 µM (inactive); in the assay on NCI-H226, > 100 µM (inactive); with NCI-H23, > 100 µM (inactive); in the assay with OVCAR-3 it was > 100 µM (inactive); with OVCAR-8 it was > 100 µM (inactive). Moreover, the GI50 in the assay with RXF 393, in the assay with SK-OV-3, in the assay on SNB-75, with SR, in the assay with T47D and in the assay on UO-31 was > 100 µM (inactive) throughout.
